Test results: ChEMBL document CHEMBL1201862, “PubChem BioAssay data set” (2004)
The source made the active and inactive calls.

Key:
[1] = tested on: Vero; assay: cells; type: functional, cell-based; details: Chlorocebus sabaeus
[2] = cells; type: functional
[3] = molecular target: T1, Protein skinhead-1 (Caenorhabditis elegans, UniProt P34707); type: functional
T1 sequence (P34707 whole entry): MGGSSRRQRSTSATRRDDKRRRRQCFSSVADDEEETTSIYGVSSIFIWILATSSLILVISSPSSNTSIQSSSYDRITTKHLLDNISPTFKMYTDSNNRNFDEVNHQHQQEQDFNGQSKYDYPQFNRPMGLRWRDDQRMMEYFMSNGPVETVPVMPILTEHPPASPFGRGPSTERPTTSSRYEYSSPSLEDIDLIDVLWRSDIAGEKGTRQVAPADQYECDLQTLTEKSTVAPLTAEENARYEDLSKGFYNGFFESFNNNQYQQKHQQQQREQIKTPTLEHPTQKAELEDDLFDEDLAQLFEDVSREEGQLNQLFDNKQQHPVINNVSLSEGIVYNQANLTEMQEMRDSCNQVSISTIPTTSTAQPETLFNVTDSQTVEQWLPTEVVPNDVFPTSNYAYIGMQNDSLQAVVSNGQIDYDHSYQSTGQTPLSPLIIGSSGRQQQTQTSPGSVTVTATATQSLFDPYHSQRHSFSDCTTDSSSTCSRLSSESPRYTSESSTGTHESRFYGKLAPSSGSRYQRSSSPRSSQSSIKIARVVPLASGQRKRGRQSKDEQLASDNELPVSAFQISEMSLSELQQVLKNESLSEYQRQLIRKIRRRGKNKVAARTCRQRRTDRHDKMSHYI

[4] = NIH-3T3 fibroblast cytotoxicity, dose response, cytotoxicity control, cell-based, fluorescence, Alamar Blue, secondary assay (AID 2327); type: functional;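 note: NIH-3T3 mouse fibroblasts cultured with fluconazole at 8 µg/mL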
[5] = molecular target: T2, High affinity choline transporter 1 (Homo sapiens, UniProt Q9GZV3); assay: human choline transporter blockers, potency – cell-based, 5-point CRC, membrane potential dye, dose response (AID 504840); type: functional
T2 sequence (Q9GZV3 whole entry): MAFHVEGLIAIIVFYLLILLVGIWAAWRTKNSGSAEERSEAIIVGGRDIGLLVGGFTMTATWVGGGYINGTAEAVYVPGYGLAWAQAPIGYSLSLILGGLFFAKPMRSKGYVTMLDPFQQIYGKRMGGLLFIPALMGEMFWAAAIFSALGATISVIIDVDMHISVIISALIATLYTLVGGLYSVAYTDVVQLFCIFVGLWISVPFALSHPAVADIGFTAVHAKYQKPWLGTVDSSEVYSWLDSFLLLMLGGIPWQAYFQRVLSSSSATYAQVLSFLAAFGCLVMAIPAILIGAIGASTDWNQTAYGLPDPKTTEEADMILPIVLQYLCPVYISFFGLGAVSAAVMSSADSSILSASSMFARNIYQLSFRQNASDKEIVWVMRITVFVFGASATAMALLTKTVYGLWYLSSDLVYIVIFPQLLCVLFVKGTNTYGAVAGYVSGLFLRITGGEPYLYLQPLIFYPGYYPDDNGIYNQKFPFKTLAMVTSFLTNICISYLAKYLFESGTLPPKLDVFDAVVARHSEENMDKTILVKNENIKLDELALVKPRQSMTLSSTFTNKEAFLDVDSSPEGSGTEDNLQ

[6] = fluconazole-exposed Candida albicans growth modulators – fluorescence, retest, confirmation (AID 2467); type: functional, cell-based
[7] = cells
[8] = viability of uninfected HEp-2 cells – cell-based, HTS, cytotoxicity control for RSV inhibitor project, dose response (AID 2410); type: functional; details: human respiratory syncytial virus
[9] = molecular target: Protein Wnt-3a (Mus musculus, UniProt P27467); assay: antagonism of Wnt3a pathway luciferase reporter – Wnt-LIGHT cells, luminescence, selectivity assay for Gli-SUFU antagonist project, dose response (AID 651570); type: functional; details: read-out: IC50_Mean;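 note: Wnt-LIGHT reporter cells stimulated with conditioned medium from Wnt3a-producing cells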
Sequence of Protein Wnt-3a (P27467 whole entry): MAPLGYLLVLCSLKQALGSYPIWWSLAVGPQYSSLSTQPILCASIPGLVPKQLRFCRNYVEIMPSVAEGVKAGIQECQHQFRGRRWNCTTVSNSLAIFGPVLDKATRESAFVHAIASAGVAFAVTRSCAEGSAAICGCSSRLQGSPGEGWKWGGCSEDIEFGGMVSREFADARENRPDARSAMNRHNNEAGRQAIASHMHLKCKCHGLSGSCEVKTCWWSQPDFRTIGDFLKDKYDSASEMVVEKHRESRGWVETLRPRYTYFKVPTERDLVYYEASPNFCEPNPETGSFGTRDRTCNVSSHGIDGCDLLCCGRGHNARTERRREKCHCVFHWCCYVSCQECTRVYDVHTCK

[10] = non-specific 3'UTR reporter inhibition in Clone20-Shn3RL – cell-based, Renilla luciferase, cherry-picked, counter-screen for Shn3 inhibitor project, dose response (AID 624133); type: functional
[11] = loss of viability in HepG2 cells – cell-based, CellTiter-Glo, cherry-picked, cytotoxicity control for Shn3 inhibitor project, dose response (AID 624134); type: functional
[12] = tested on: INS1; assay: INS-1E survival protection against cytokine death – cell-based, luminescence, retest, dose response (AID 449756); type: functional; details: Rattus norvegicus;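 note: cell death triggered by IL-1 beta plus TNF-alpha plus IFN-gamma mixture; protective hits raise ATP signal compared with cytokine alone wells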
[13] = reduction of Shn3 3'UTR-driven luciferase in osteoblasts – cell-based, Clone20 osteoblasts, firefly luciferase, cherry-picked, dose response (AID 624132); type: functional;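 note: firefly luciferase luminescence from reporter carrying the Shn3 3'UTR in osteoblasts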
[14] = molecular target: Neurotensin receptor type 1 (Homo sapiens, UniProt P30989); type: functional;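 note: Image-based confirmatory dose-response assay measuring agonist activity at NTR1; NTR1-expressing U2OS osteosarcoma cells imaged for beta-arrestin GFP spot formation; agonist potency where compounds increase beta-arrestin recruitment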
Sequence of Neurotensin receptor type 1 (P30989 whole entry): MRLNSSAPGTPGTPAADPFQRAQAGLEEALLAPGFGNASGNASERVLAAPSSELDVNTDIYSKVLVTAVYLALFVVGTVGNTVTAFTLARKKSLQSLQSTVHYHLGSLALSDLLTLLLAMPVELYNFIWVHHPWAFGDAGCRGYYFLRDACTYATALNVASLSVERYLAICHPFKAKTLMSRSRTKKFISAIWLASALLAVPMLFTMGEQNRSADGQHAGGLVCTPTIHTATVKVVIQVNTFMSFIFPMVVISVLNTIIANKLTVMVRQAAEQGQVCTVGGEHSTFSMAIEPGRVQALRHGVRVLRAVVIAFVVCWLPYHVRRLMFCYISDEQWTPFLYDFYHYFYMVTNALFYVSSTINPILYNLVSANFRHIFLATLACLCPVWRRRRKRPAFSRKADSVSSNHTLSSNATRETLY

[15] = molecular target: Heat shock protein HSP 90-alpha (Homo sapiens, UniProt P07900); type: functional, organism-based
[16] = Fluorescence-based cell-based high throughput dose response assay for inhibitors of the interaction of nucleotide-binding oligomerization domain containing 2 (NOD2) and the receptor-interacting serine-threonine kinase 2 (RIPK2).; type: functional; details: Homo sapiens
[17] = molecular target: Large T antigen (Simian virus 40, UniProt P03070); type: functional, Betapolyomavirus macacae;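 note: Confirmatory-stage PubChem screen for compounds that inhibit SV40 T antigen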
Sequence of Large T antigen (P03070 whole entry): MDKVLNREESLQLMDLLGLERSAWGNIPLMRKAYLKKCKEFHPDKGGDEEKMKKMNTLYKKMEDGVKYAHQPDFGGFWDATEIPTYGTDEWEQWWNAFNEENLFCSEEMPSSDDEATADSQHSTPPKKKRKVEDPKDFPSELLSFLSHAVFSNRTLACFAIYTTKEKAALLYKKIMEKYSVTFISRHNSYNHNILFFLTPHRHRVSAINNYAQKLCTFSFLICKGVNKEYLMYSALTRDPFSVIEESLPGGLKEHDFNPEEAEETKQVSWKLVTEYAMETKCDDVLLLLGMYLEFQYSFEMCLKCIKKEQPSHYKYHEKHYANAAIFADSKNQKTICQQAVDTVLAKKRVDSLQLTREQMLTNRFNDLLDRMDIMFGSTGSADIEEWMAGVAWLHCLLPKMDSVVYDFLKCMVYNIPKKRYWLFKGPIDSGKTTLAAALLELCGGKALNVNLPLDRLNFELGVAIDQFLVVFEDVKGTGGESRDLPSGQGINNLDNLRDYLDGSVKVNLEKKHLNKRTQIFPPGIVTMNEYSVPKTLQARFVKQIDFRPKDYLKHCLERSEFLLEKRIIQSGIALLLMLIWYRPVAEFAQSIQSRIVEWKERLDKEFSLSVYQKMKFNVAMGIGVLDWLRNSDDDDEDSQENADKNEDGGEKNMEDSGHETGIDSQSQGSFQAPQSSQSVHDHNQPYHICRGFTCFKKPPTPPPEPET

[18] = THP-1 cell cytotoxicity, dose response, cytotoxicity control for non-replicating M. tuberculosis project (AID 489025); type: functional
[19] = molecular target: T3, Zinc finger protein mex-5 (Caenorhabditis elegans, UniProt Q9XUB2); assay: potency of MEX-5 RNA-binding blockers – biochemical, C. elegans, fluorescence polarization, dose response (AID 1960)
T3 sequence (Q9XUB2 whole entry): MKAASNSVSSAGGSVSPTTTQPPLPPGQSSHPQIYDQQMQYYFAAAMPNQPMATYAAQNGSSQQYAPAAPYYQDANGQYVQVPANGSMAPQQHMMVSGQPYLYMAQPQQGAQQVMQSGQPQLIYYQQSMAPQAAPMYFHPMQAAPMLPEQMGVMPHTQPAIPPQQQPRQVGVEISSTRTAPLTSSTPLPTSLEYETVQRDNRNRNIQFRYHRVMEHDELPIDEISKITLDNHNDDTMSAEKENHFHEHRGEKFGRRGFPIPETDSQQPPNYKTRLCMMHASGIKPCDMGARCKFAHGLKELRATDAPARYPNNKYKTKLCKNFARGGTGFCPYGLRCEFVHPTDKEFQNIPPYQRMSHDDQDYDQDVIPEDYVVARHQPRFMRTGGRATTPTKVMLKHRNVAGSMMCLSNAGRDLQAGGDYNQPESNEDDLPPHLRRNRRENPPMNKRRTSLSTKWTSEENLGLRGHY

[20] = molecular target: Genome polyprotein (dengue virus type 2, UniProt P29990); assay: flavivirus cap methylation enzyme inhibition – biochemical, confirmation dose response, primary screen (AID 588689); type: functional
Sequence of Genome polyprotein (P29990 2492-3391 limits assumed): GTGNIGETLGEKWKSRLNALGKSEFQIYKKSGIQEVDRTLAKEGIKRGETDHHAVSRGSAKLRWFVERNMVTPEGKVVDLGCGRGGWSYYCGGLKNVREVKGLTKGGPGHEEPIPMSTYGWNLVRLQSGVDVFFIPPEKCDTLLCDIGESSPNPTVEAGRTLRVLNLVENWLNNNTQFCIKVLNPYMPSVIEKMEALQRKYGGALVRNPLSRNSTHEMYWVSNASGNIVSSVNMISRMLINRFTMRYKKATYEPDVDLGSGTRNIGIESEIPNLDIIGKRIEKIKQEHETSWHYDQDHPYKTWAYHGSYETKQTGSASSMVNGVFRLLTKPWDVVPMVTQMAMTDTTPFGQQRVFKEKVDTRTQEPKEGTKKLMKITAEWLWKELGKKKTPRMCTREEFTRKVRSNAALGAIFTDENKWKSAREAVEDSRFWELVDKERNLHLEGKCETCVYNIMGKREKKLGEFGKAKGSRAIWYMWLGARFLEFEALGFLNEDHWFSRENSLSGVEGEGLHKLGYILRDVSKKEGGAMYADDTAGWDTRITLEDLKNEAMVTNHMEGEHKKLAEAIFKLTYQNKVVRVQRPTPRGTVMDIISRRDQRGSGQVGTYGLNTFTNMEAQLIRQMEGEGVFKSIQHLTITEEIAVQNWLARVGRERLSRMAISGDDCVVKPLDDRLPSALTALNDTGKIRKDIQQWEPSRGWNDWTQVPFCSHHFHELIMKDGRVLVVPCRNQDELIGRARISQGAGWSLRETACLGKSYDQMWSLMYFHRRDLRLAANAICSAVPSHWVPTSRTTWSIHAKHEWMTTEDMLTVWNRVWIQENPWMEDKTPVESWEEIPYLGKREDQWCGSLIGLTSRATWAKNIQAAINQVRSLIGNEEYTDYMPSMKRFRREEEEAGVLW

[21] = molecular target: T4, RNA-binding protein pos-1 (Caenorhabditis elegans, UniProt G5EF15); assay: disruptors of C. elegans POS-1 RNA interaction – biochemical, fluorescence polarization, dose response (AID 1964);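 note: purified POS-1 fused to maltose binding protein made in E. coli; potency of compounds blocking POS-1 binding to fluorescent RNA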
T4 sequence (G5EF15 whole entry): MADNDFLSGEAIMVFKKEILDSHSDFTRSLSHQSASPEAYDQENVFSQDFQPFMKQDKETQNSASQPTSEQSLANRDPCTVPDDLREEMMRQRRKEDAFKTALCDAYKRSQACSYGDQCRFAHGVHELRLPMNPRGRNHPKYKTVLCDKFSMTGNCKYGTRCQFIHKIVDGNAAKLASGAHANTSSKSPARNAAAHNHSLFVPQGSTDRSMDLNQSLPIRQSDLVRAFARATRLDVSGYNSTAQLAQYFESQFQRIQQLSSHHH

[22] = tested on: BJ; assay: cells; type: functional, cell-based; details: Homo sapiens
[23] = molecular target: T5, Microphthalmia-associated transcription factor (Homo sapiens, UniProt O75030); assay: reducers of TRPM1 reporter luminescence, concentration series – cell-based, SK-MEL-5, cherry-picked, set 3, MITF inhibitor project, dose response (AID 493073); type: functional;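 note: SK-MEL-5 melanoma cells with luciferase driven by the MITF target TRPM1 promoter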
T5 sequence (O75030 whole entry): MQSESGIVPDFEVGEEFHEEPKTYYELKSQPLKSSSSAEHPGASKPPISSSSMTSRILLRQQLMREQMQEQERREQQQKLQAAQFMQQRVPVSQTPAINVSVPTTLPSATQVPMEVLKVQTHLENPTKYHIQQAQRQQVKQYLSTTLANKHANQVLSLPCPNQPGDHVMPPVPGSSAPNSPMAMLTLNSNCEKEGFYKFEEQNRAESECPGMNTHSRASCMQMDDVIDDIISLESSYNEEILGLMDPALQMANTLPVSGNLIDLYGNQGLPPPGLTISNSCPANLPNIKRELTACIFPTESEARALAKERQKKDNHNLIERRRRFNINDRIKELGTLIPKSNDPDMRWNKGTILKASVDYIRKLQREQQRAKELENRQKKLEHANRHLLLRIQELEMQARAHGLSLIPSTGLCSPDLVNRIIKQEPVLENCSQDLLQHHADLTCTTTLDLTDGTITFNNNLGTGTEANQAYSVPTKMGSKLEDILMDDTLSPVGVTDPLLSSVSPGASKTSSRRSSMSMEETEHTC

[24] = cells; type: functional, cell-based
[25] = tested on: BJ; assay: BJ-TERT fibroblast viability loss – cell-based, RAS-independent, luminescence, dose response (AID 1933); type: functional; details: Homo sapiens
[26] = Luminescence Cell-Based Dose Response HTS to Identify Activators of Luciferase Translation or Activity in H4 […] Cells. [Related pubchem assays: 1829 (Project Summary), 1814 (Primary HTS)]; type: functional
[27] = cells; type: functional, cell-based; remark: listed apart in the source
[28] = DRD fibroblast viability loss – cell-based, non-viral oncogenic, luminescence, dose response (AID 1934); type: functional; details: Homo sapiens
[29] = Luminescence Cell-Based Dose Confirmation HTS to Identify Activators of 5'UTR Stem-Loop Driven Alpha-Synuclein mRNA Translation in H4 Neuroglioblastoma Cells. [Related pubchem assays: 1829 (Project Summary), 1814 (Primary HTS)]; type: functional
[30] = tested on: H4; assay: Luminescence Cell-Based Dose Response HTS to Identify Activators of 5'UTR Stem-Loop Driven Prion Protein mRNA Translation in H4 Neuroglioblastoma Cells. [Related pubchem assays: 1829 (Project Summary), 1814 (Primary HTS)]; type: functional; details: Homo sapiens
[31] = tested on: BJ; assay: BJ-TERT-LT-ST fibroblast viability loss – cell-based, RAS-independent, luminescence, dose response (AID 1935); type: functional; details: Homo sapiens;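 note: BJ fibroblasts immortalized with TERT plus LT and ST oncogenes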
[32] = molecular target: Peroxisome proliferator-activated receptor gamma/Nuclear receptor coactivator 1 (Homo sapiens, UniProt P37231); assay: (§1) TR-FRET dose response biochemical High Throughput Screening assay for agonists of the steroid receptor coactivator 1 (SRC-1) recruitment by the peroxisome proliferator-activated receptor gamma (PPAR gamma): non-selective agonists. [Related pubchem assays (depositor defined):AID1300, AID1808, AID504735, AID631]; type: protein assay
Sequence of Peroxisome proliferator-activated receptor gamma/Nuclear receptor coactivator 1 (P37231 whole entry): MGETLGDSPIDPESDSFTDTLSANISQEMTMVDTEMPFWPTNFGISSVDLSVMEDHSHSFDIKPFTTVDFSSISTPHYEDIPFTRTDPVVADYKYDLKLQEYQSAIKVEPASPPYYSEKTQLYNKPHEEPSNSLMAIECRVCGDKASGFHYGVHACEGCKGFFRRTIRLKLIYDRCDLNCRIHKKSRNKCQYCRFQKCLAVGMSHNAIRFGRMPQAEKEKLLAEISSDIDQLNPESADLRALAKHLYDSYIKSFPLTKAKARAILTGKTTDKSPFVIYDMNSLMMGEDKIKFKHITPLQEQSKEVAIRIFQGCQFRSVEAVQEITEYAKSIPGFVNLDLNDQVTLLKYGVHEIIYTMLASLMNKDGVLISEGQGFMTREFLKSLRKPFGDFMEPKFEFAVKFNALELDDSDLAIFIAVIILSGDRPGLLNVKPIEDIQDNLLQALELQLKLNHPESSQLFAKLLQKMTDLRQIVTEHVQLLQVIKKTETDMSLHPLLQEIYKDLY
Sequence of Peroxisome proliferator-activated receptor gamma/Nuclear receptor coactivator 1 (Q15788 whole entry, further chain): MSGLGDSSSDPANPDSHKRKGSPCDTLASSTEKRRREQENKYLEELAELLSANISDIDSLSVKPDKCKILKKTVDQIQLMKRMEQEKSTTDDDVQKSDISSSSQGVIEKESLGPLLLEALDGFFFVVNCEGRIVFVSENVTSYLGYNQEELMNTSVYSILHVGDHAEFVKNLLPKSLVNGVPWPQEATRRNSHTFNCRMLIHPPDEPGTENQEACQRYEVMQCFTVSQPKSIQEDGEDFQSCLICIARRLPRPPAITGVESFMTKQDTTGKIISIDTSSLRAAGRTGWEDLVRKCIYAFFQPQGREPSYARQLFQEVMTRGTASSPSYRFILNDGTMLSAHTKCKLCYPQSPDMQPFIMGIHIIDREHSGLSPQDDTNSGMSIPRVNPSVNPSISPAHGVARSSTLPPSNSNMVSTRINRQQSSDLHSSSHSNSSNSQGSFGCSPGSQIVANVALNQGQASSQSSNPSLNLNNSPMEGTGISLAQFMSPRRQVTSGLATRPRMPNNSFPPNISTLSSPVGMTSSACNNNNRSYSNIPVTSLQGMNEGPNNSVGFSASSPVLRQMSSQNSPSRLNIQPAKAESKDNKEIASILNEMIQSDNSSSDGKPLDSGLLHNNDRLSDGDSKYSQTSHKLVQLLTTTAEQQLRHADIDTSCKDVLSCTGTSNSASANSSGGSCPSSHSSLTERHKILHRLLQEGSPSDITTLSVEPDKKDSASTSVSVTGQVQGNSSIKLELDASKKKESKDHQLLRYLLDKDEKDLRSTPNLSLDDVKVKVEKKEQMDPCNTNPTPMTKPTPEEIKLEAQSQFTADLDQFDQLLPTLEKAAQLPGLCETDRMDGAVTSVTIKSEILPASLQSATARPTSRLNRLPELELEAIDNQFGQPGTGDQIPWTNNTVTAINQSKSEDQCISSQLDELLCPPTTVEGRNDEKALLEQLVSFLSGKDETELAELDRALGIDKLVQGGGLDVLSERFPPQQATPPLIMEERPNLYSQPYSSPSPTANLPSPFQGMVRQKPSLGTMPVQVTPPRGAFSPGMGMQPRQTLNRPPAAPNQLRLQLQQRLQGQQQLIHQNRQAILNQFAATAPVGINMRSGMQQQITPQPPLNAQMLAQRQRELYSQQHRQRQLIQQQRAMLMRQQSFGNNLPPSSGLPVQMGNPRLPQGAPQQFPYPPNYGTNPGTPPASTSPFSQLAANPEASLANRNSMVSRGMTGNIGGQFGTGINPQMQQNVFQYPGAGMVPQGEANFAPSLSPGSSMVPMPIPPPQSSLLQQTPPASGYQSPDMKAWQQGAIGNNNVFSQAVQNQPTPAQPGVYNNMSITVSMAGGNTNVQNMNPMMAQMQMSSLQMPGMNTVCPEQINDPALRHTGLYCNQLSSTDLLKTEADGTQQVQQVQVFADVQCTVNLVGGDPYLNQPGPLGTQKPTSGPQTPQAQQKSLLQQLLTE

[33] = molecular target: Peroxisome proliferator-activated receptor gamma/Nuclear receptor coactivator 3 (Homo sapiens, UniProt P37231); assay: as §1, with “3 (SRC-3)” for “1 (SRC-1)”, “assays: 1301 (Confirmation screen.), 1048 (Primary screen.)]” for “assays (depositor defined):AID1300, AID1808, AID504735, AID631]”; type: functional
[34] = molecular target: Peroxisome proliferator-activated receptor gamma/Nuclear receptor coactivator 2 (Homo sapiens, UniProt P37231); assay: TR-FRET dose response biochemical High Throughput Screening assay for agonists of the steroid receptor coactivator 2 (SRC-2) recruitment by the peroxisome proliferator-activated receptor gamma (PPAR gamma): non-selective agonists. [Related pubchem assays: 1297, 1032 ]; type: functional

## O=C(CCCN1C(=O)/C(=C\c2ccco2)SC1=S)Nc1ccc2ccccc2c1
[1]
  IC50: 8.01 µM (active)

## O=[N+]([O-])c1ccc(Nc2ccccc2)c2nonc12
[2]
  IC50: 7.68 µM (active)
[3]
  IC50: 41.5 µM (active)
[4]
  EC50: > 150 µM (inconclusive)
[5]
  IC50: 11.8 µM (active)
[6]
  EC50: < 0.03 µM (active)

## Cc1cccc(C(=O)Nc2ccccc2SCC2CSc3nc4ccccc4c(=O)n32)c1 (stereo unspecified)
[1]
  IC50: > 25 µM (active)
[7]
  IC50: 19.9 µM (active)
[8]
  CC50: 43 µM (active)

## COc1ccc(NS(=O)(=O)c2ccc(N3CCCCC3)c(N)c2)cc1
[9]
  IC50: 0.102 µM (active)
[10]
  AC50: 1.51 µM (active)
[11]
  AC50: 4.01 µM (active)
[12]
  AC50: 3.22 µM (active)
[13]
  AC50: 0.824 µM (active)

## COc1ccc(C(C[N+](=O)[O-])n2nc(C)cc2C)cc1 (stereo unspecified)
[14]
  EC50: 10.1 µM (active)
[15]
  AC50: 1.94 µM (active)
[16]
  IC50: 1.63 µM (active)

## COc1cccc(N2C(=O)NC(=O)/C(=C/c3ccc([N+](=O)[O-])s3)C2=O)c1
[2]
  IC50: 27.6 µM (active)
[17]
  IC50: 47.3 µM (active)
[18]
  CC50: 37.1 µM (active)
[8]
  CC50: 13.8 µM (active)
[19]
  EC50: 27.2 µM (active)
[20]
  IC50: 38 µM (active)
[21]
  EC50: 34.4 µM (active)

## COc1cc(/C=C/C(=O)c2ccc3c(c2)OCCO3)cc(Br)c1OCC(=O)N(C)C
[22]
  EC50: 3.4 µM (inconclusive)
[23]
  AC50: 6.17 µM (active)
[24]
  EC50: > 350 µM (not active)
[25]
  EC50: 4.75 µM (active)
[26]
  EC50: 14.4 µM (active)
[27]
  EC50: > 350 µM (not active)
[28]
  EC50: 5.43 µM (inconclusive)
[10]
  AC50: 8.52 µM (active)
[29]
  EC50: 5.83 µM (active)
[11]
  AC50: 14.2 µM (active)
[30]
  EC50: > 120 µM (not active)
[31]
  EC50: 5.55 µM (inconclusive)
[13]
  AC50: 2.63 µM (active)

## CC1Sc2n(c3ccccc3[n+]2C)N=C1c1ccccc1 (stereo unspecified)
[9]
  IC50: 3.6 µM (active)

## Cc1ccc(-n2c(S)nnc2-c2ccccc2)cc1
[32]
  EC50: 33.6 µM (inactive)
[33]
  EC50: > 79.4 µM (not active)
[34]
  EC50: 18.4 µM (not active)
